Assay results from PMC10122656, “Siglec-6 mediates the uptake of extracellular vesicles through a noncanonical glycolipid binding pocket” (Nature Communications, 2023).
Several values for one entry are separate records, joined by “and”; a condition that tells them apart may be missing. Equal entries are not always repeated.

What was measured:
Assay in all cases: Cell assay (liposome/EV binding, flow cytometry)
Type in all cases: cell-based
Siglec-5 R119A CHO cells = biological target: T1, Siglec-5 R119A CHO cells (Homo sapiens, UniProt O15389, R119A); conditions: Sig-5 R119A†; † after treatment of cells with neuraminidase; 3 mol% ganglioside liposomes; replicates
T1 construct: expressed in transfected cells
T1 sequence (O15389 17-551 R119A): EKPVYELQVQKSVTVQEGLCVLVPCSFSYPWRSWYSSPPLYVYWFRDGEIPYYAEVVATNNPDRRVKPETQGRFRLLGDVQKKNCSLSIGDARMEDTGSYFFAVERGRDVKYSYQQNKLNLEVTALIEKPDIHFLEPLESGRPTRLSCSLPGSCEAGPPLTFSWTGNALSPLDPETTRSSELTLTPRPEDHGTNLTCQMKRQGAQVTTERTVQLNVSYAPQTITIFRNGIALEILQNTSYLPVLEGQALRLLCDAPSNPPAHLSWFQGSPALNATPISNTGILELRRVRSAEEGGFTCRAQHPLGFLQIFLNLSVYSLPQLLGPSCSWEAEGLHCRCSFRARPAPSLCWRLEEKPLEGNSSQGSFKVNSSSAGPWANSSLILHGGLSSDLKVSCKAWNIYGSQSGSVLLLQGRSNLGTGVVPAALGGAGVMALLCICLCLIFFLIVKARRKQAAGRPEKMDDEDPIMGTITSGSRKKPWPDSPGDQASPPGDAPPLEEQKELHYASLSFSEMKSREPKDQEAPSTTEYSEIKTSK
Protocol: (§1) Stock lipids (DSPC, Cholesterol, PEG45–DSPE) solutions were prepared by solvating the lipids in chloroform. An appropriate volume of each lipid solution was transferred to a glass test tube to reach the desired mol% of the component. The chloroform was then removed under N2 gas to yield a lipid thin film. Once dry, 100 µL of DMSO was added to the lipid-containing test tube and then the functional lipids (ganglioside, AF647–PEG45–DSPE, Siglec ligand–PEG45–DSPE, pHrodo–PEG45–DSPE, NGL) was added from their respect DMSO stock solution. The lipid mixture was then stored at −80 °C until completely frozen at which point excess DMSO was removed via lyophilization. Dry lipids were then stored at −80 °C until they were extruded. Lipid suppliers can be found in Supplementary Table 4.
(§2) Dry lipids were then hydrated in 1 mL of PBS. The lipids were then sonicated in a bath sonicator in a cycle of 1 min on, 5 min off for a total of five cycles. Liposomes were then extruded using an Avanti mini extruder first using an 800 nm filter and then a 100 nm filter yielding liposomes that were 130 ± 35 nm (Supplementary Table 5) measured using a Malvern Panalytical Zetasizer Nano S. Liposomes were stored at 4 °C.
(§3) 200,000 cells/well were plated into a 96-well U-bottom microplate and centrifuged at 300 × g for 5 min. The cells were then resuspended in 50 µL of 50 µM liposome/50 µg/mL (protein concentration) of EV solution in DMEM F12 5% FBS and incubated at 37 °C for 30 min. Excess liposomes were then removed via centrifuged at 300 × g for 5 min followed by washing the cells with FACS solution. The cells were then resuspended in (1:250 V/V) anti-Siglec-flow buffer (1% V/V FBS, 500 µM, EDTA Hank’s Balanced Salt Solution pH 7.4), solution and left to rest on ice for 30 min. The cells were then centrifuged again at 300 × g for 5 min and the cells were resuspended in FACS buffer solution and were then ready for analysis by flow cytometry. Information regarding antibody clone, catalog number supplier, label isotype, and dilution can be found in Supplementary Table 6. The Siglec-positive cells were gated on for liposome-binding analysis (Supplementary Fig. 1b).
(§4) Flow cytometry measurements were collected on a 5-laser Fortessa X-20 (BD Bioscience). All the resulting data were analyzed using FlowJo (10.5.3) software (BD Biosciences).
Cells were harvested and resuspended in complete media with either Neuraminidase A or S. The cells were then placed in a 37 °C shaking incubator for 1 h. The cells were then washed with complete media and then the liposome binding assay was performed as described above.

CD22 R120A CHO cells = biological target: T2, CD22 R120A CHO cells (Homo sapiens, UniProt P20273, R120A); conditions: 3 mol% ganglioside liposomes, replicates
T2 construct: expressed in transfected cells
T2 sequence (P20273 20-847 R120A): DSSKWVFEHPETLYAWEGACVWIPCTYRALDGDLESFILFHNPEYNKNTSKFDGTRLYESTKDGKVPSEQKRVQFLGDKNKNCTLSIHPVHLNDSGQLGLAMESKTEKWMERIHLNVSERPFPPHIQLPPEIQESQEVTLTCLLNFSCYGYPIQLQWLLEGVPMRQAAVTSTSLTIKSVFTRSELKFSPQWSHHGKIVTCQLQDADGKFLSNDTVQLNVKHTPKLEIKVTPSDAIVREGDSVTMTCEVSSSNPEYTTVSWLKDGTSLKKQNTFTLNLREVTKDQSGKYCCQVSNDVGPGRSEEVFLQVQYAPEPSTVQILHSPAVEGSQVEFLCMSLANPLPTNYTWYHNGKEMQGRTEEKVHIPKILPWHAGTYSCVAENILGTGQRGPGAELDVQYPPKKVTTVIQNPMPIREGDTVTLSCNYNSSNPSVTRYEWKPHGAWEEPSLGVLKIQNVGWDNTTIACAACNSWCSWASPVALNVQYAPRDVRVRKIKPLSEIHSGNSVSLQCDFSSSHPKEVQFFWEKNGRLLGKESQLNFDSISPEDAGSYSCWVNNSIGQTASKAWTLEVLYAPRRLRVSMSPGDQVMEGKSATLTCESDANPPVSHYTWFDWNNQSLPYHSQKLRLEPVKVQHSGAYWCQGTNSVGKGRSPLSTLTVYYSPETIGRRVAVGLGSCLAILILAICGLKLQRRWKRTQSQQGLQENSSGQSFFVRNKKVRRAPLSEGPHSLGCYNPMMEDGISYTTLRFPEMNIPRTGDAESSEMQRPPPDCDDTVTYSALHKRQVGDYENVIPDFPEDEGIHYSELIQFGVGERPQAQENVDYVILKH
Protocol: as §1, §2, §3, §4

CD33 WT CHO cells = biological target: T3, CD33 WT CHO cells (Homo sapiens, UniProt P20138); conditions: 3 mol% ganglioside liposomes, replicates
T3 construct: expressed in transfected cells
T3 sequence (P20138 18-364): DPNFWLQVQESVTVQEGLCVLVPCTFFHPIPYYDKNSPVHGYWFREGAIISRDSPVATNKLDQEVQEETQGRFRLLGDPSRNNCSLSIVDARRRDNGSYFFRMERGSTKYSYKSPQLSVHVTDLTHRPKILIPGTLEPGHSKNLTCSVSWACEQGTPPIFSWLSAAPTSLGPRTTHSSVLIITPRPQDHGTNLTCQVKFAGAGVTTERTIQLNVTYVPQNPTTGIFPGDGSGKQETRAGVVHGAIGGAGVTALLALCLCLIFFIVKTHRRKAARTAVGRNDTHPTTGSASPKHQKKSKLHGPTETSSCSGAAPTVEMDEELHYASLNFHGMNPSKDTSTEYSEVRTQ
Protocol: as §1, §2, §3, §4

For GD1a, the “log10(MFI AF647) of GLL relative to log10(MFI AF647) of the same GLL against UT CHO cells (Fig. 2a)” value (Siglec-5 R119A CHO cells) was -0.25 and -0.02 and -0.03 and 0.01, the “log10(MFI AF647) of GLL relative to log10(MFI AF647) of the same GLL against UT CHO cells (Fig. 2a)” value (CD22 R120A CHO cells) was 0.09 and 0.1 and 0.05 and 0.08 and the “log10(MFI AF647) of GLL relative to log10(MFI AF647) of the same GLL against UT CHO cells (Fig. 2a)” value (CD33 WT CHO cells) was -0.09 and -0.06 and -0.03 and 0.01.
For GD1b, the “log10(MFI AF647) of GLL relative to log10(MFI AF647) of the same GLL against UT CHO cells (Fig. 2a)” value (Siglec-5 R119A CHO cells) was 0.17 and -0.03 and -0.02 and 0.04, the “log10(MFI AF647) of GLL relative to log10(MFI AF647) of the same GLL against UT CHO cells (Fig. 2a)” value (CD22 R120A CHO cells) was 0.03 and 0.02 and -0.01 and 0.01 and the “log10(MFI AF647) of GLL relative to log10(MFI AF647) of the same GLL against UT CHO cells (Fig. 2a)” value (CD33 WT CHO cells) was -0.13 and -0.1 (2×) and -0.07.
In the case of GD3, the “log10(MFI AF647) of GLL relative to log10(MFI AF647) of the same GLL against UT CHO cells (Fig. 2a)” value (Siglec-5 R119A CHO cells) is reported as -0.21 (2×) and -0.15 (2×), the “log10(MFI AF647) of GLL relative to log10(MFI AF647) of the same GLL against UT CHO cells (Fig. 2a)” value (CD22 R120A CHO cells) is reported as 0.09 and 0.1 (2×) and 0.11 and the “log10(MFI AF647) of GLL relative to log10(MFI AF647) of the same GLL against UT CHO cells (Fig. 2a)” value (CD33 WT CHO cells) is reported as -0.03 (2×) and -0.01 and 0.
GM1 was tested, and the “log10(MFI AF647) of GLL relative to log10(MFI AF647) of the same GLL against UT CHO cells (Fig. 2a)” value (Siglec-5 R119A CHO cells) was -0.32 and -0.33 and -0.29 and -0.28, the “log10(MFI AF647) of GLL relative to log10(MFI AF647) of the same GLL against UT CHO cells (Fig. 2a)” value (CD22 R120A CHO cells) was 0.06 and 0.04 and -0.02 and 0.03 and the “log10(MFI AF647) of GLL relative to log10(MFI AF647) of the same GLL against UT CHO cells (Fig. 2a)” value (CD33 WT CHO cells) was -0.29 and -0.27 and -0.21 and -0.16.
In the case of GM2, the “log10(MFI AF647) of GLL relative to log10(MFI AF647) of the same GLL against UT CHO cells (Fig. 2a)” value (Siglec-5 R119A CHO cells) is reported as -0.1 and -0.09 (2×) and -0.11, the “log10(MFI AF647) of GLL relative to log10(MFI AF647) of the same GLL against UT CHO cells (Fig. 2a)” value (CD22 R120A CHO cells) is reported as 0.1 (2×) and 0.12 and 0.08 and the “log10(MFI AF647) of GLL relative to log10(MFI AF647) of the same GLL against UT CHO cells (Fig. 2a)” value (CD33 WT CHO cells) is reported as -0.08 and -0.05 and -0.02 and 0.
In the case of GM3, the “log10(MFI AF647) of GLL relative to log10(MFI AF647) of the same GLL against UT CHO cells (Fig. 2a)” value (Siglec-5 R119A CHO cells) is reported as -0.22 (2×) and -0.21 and -0.24, the “log10(MFI AF647) of GLL relative to log10(MFI AF647) of the same GLL against UT CHO cells (Fig. 2a)” value (CD22 R120A CHO cells) is reported as -0.15 and -0.16 and -0.17 and -0.18 and the “log10(MFI AF647) of GLL relative to log10(MFI AF647) of the same GLL against UT CHO cells (Fig. 2a)” value (CD33 WT CHO cells) is reported as -0.19 and -0.14 and -0.12 and -0.08.
With GM4 the “log10(MFI AF647) of GLL relative to log10(MFI AF647) of the same GLL against UT CHO cells (Fig. 2a)” value (Siglec-5 R119A CHO cells) was -0.2 (3×) and -0.21, the “log10(MFI AF647) of GLL relative to log10(MFI AF647) of the same GLL against UT CHO cells (Fig. 2a)” value (CD22 R120A CHO cells) was 0.11 and 0.12 and 0.09 and 0.1 and the “log10(MFI AF647) of GLL relative to log10(MFI AF647) of the same GLL against UT CHO cells (Fig. 2a)” value (CD33 WT CHO cells) was -0.13 and -0.11 and -0.09 and -0.02.
For GQ1b, the “log10(MFI AF647) of GLL relative to log10(MFI AF647) of the same GLL against UT CHO cells (Fig. 2a)” value (Siglec-5 R119A CHO cells) was -0.2 and -0.19 and -0.12 and -0.08, the “log10(MFI AF647) of GLL relative to log10(MFI AF647) of the same GLL against UT CHO cells (Fig. 2a)” value (CD22 R120A CHO cells) was -0.05 and -0.03 and -0.04 and -0.06 and the “log10(MFI AF647) of GLL relative to log10(MFI AF647) of the same GLL against UT CHO cells (Fig. 2a)” value (CD33 WT CHO cells) was -0.12 (2×) and -0.14 and -0.09.
In the case of GT1b, the “log10(MFI AF647) of GLL relative to log10(MFI AF647) of the same GLL against UT CHO cells (Fig. 2a)” value (Siglec-5 R119A CHO cells) is reported as -0.05 and -0.03 and 0.02 and 0.1, the “log10(MFI AF647) of GLL relative to log10(MFI AF647) of the same GLL against UT CHO cells (Fig. 2a)” value (CD22 R120A CHO cells) is reported as 0.05 and 0.04 (2×) and 0.06 and the “log10(MFI AF647) of GLL relative to log10(MFI AF647) of the same GLL against UT CHO cells (Fig. 2a)” value (CD33 WT CHO cells) is reported as -0.09 and -0.1 and -0.08 and -0.06.
